The assay addresses Ypt1p (His6-Ypt1p 1-180) (Saccharomyces cerevisiae, UniProt P01123). The assay is described as follows: stopped-flow fluorescence. It is filed as binding. The note with it: pH 8.0, 25 °C, 5 mM MgCl2; labelled compound; nucleotide-free Ypt1p; association rate constant.

Chain of Ypt1p (His6-Ypt1p 1-180) (P01123 1-180): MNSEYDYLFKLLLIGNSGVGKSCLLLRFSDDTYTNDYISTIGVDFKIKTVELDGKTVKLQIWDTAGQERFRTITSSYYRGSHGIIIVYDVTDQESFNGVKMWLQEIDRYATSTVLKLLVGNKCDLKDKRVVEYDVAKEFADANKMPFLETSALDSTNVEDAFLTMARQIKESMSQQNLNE

As for `CNc1ccccc1C(=O)O[C@H]1C[C@H](n2cnc3c(=O)[nH]c(N)nc32)O[C@@H]1COP(=O)(O)OP(=O)(O)O` [mant-dGDP], the Value is reported as 0.096 (±0.004) μM^-1 s^-1.

The values above are taken from publication PMC2770256 (Journal of molecular biology, 2009).
